pEC50: −log10 of the molar value. Read-outs that look alike come from different tables or passages of the source.
Test system: HCV 1b genotype
Assay: HCV replicon assay (HCV-neo replicon cells)
Format: cell-based
Conditions: Hepatitis C virus, HCV 1b genotype replicon
Procedure: An HCV Replion assay was utilized in the present disclosure, and was prepared, conducted and validated as described in commonly owned PCT/US2006/022197 and in O'Boyle et. al. Antimicrot Agents Chemother. 2005 April; 49(4):1346-53.
HCV-neo replicon cells were used to test the currently described compound series as well as cells resistant to compound A containing mutations in NS5A (described in application PCT/US2006/022197). The compounds tested were determined to have more than 10-fold less inhibitory activity on cells containing the mutation than wild-type cells indicating a related mechanism of action between the two compound series. Thus, the compounds of the present disclosure can be effective to inhibit the function of the HCV NS5A protein and are understood to be as effective in combinations as previously described in application PCT/US2006/022197 and commonly owned WO 04/014852. Further, the compounds of the present disclosure can be effective against the HCV 1b genotype. It should also be understood that the compounds of the present disclosure can inhibit multiple genotypes of HCV. […] In one embodiment compounds of the present disclosure are active against the 1a, 1b, 2a, 2b, 3a, 4a, and 5a genotypes. Activity ranges are as follows: A=501 nM-1 μM; B 1-500 nM; C=100-999 pM.

SMILES | pEC50 (activity range class) | pEC50 (read-out: EC50 Range/Value)
CC(C)(C)OC(=O)N1CCC[C@H]1c1ncc(-c2ccc(-c3ccc4ncnc(Nc5ccc(N6CCOCC6)cc5)c4c3)cc2)[nH]1 [Example 1 step e] | 6.30 to 9.00 | 
c1nc(Nc2ccc(N3CCOCC3)cc2)c2cc(-c3ccc(-c4cnc([C@@H]5CCCN5)[nH]4)cc3)ccc2n1 [Example 1 step f] |  | 5.82
COC(=O)N[C@H](C(=O)N1CCC[C@H]1c1ncc(-c2ccc(-c3ccc4ncnc(Nc5ccc(N6CCOCC6)cc5)c4c3)cc2)[nH]1)C(C)C [Example 1] | 6.30 to 9.00 | 
CC(=O)N1CCC[C@H]1c1ncc(-c2ccc(-c3ccc4ncnc(Nc5ccc(N6CCOCC6)cc5)c4c3)cc2)[nH]1 [Example 6] | 6.00 to 6.30 | 

— US8093243B2, “Hepatitis C virus inhibitors” (Bristol-Myers Squibb Company, priority 2008, dated 2012)
